Columns and labels:
[1] = system: lasered (hypertensive) eyes of conscious cynomolgus monkeys; assay: Acute IOP response in lasered (hypertensive) eyes of conscious cynomolgus monkeys; assay type: in vivo; conditions: instilled in right eyes, IOP at 1, 3 and 6 hours; for Peak % Reduction in IOP vs. Control at 0.3%: compound at 0.3%
Description: Acute IOP Response in Lasered (Hypertensive) Eyes of Conscious Cynomolgus Monkeys
Intraocular pressure (IOP) can be determined with an Alcon Pneumatonometer after light corneal anesthesia with 0.1% proparacaine. Eyes are washed with saline after each measurement. After a baseline IOP measurement, test compound is instilled in one […] aliquot to the right eyes only of nine cynomolgus monkeys. Vehicle is instilled in the right eyes of six additional animals. Subsequent IOP measurements are taken at 1, 3, and 6 hours, and peak reduction in IOP is reported below in Table 2 as percent of IOP lowering versus the control for each of the given concentrations of compound.
A more detailed description of the assay used herein may be found in May et al., “Evaluation of the Ocular Hypotensive Response of Serotonin 5-HT1A and 5-HT2 Receptor Ligands in Conscious Ocular Hypertensive Cynomolgus Monkeys,” J. of Pharmacology and Experimental Therapeutics, vol. 306(1), pp. 301-309 (2003), the disclosure of which is hereby incorporated by reference as if written herein in its entirety.

[2] = molecular target: T1, recombinant N-terminal GST-tagged human Rho kinase 1 (ROCK1, amino acids 1-535) (Homo sapiens, UniProt Q13464); assay: In vitro Rho kinase assay (luciferase-based ATP consumption), ROCK1; assay type: biochemical
T1 construct: ROCK1, amino acids 1-535, Invitrogen Inc., cat. #PV-3691; GST (N); purchased Invitrogen Inc. PV-3691
T1 sequence (Q13464 1-535): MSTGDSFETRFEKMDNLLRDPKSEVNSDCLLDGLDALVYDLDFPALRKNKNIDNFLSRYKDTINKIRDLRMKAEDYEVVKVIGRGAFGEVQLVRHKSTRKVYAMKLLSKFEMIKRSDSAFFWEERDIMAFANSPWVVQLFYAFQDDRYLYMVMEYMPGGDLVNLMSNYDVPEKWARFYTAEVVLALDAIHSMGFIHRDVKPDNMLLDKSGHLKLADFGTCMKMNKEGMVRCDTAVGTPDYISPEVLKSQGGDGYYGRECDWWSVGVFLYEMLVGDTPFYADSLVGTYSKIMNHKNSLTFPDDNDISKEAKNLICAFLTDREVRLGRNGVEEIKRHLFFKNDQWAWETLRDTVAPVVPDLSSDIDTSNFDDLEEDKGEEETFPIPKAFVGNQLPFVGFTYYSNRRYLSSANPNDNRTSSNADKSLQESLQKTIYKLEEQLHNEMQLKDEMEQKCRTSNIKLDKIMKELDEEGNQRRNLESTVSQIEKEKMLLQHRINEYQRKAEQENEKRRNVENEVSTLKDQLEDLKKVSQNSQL

[3] = molecular target: T2, recombinant N-terminal GST-tagged human Rho kinase 2 (ROCK2, amino acids 1-552) (Homo sapiens, UniProt O75116); assay: In vitro Rho kinase assay (luciferase-based ATP consumption), ROCK2; assay type: biochemical
T2 construct: ROCK2, amino acids 1-552, Invitrogen Inc., cat #PV3759; GST (N); purchased Invitrogen Inc. PV3759
T2 sequence (O75116 1-552): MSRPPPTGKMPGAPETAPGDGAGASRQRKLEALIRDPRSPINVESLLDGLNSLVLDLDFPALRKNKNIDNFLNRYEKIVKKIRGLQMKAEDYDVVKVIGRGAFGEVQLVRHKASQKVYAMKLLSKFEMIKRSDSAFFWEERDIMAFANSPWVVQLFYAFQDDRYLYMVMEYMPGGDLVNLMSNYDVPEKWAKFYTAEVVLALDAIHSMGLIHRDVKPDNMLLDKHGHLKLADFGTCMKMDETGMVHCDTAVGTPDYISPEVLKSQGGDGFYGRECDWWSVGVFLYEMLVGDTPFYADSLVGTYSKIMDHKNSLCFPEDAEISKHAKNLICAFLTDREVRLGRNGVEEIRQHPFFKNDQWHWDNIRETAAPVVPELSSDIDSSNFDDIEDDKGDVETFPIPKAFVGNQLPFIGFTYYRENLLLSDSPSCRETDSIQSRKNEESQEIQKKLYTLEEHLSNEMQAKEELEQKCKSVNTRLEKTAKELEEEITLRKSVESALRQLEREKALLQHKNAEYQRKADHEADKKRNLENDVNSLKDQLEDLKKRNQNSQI

| IC50 [2] [µM] | IC50 [3] [µM] | Compound | Peak % Reduction in IOP vs. Control at 0.3% [1] [%] | Peak % Reduction in IOP vs. Control at 1.0% ([1]; compound at 1.0%) [%] |
| --- | --- | --- | --- | --- |
| < 5 | < 5 | O=C(NCc1nc(-c2ccncc2)n[nH]1)c1ccc(O)cc1O [Example 15, 2,4-dihydroxy-N-((3-(pyridin-4-yl)-1H-1,2,4-triazol-5-yl)methyl)benzamide] | 14.9 | 9.8 |
| < 5 | < 5 | Cc1cccc(C(=O)NCc2nc(-c3ccncc3)n[nH]2)c1O [Example 22, 2-hydroxy-3-methyl-N-((3-(pyridin-4-yl)-1H-1,2,4-triazol-5-yl)methyl)benzamide] | 11.1 |  |

Source: patent US20080021217A1, “HETEROCYCLIC INHIBITORS OF RHO KINASE” (priority 2006, published 2008)
